Results published in paper PMC9250511, “Metabolomics-guided discovery of cytochrome P450s involved in pseudotropine-dependent biosynthesis of modified tropane alkaloids” (Nature Communications, 2022).

Key:
[1] = biological target: T1, AbP450-116623 (Atropa belladonna, UniProt A0A3G4RHW9); assay: transient expression in N. benthamiana leaves, UHPLC/HRMS of products; assay type: cell-based; details: 1 mM substrate hydrochloride infiltrated in leaf, 2 days; ring-hydroxylation at carbon adjacent to ring nitrogen (isomer 1)
T1 construct: full-length ORF in pEAQ-HT-DEST1, transiently produced in Nicotiana benthamiana leaves

[2] = biological target: T2, AbP450-5021 (Atropa belladonna, UniProt A0A3G4RHX1); assay: as above; assay type: cell-based; details: 1 mM substrate hydrochloride infiltrated in leaf, 2 days
T2 construct: full-length ORF in pEAQ-HT-DEST1, transiently produced in Nicotiana benthamiana leaves
T2 sequence (A0A3G4RHX1 entry or part of it): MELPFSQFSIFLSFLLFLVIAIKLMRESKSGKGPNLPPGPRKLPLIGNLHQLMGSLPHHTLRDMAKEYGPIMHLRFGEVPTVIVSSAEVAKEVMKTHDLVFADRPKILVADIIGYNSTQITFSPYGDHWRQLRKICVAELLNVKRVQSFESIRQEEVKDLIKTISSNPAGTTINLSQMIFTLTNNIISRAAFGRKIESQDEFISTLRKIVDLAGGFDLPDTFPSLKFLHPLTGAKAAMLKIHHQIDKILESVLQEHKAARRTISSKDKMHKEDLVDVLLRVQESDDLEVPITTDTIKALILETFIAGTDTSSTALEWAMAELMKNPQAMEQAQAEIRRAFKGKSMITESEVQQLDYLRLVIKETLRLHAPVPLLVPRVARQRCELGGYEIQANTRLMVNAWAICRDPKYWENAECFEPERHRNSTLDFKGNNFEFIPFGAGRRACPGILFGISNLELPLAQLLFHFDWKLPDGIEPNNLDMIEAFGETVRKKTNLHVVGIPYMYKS

T1 sequence (A0A3G4RHW9 entry or part of it): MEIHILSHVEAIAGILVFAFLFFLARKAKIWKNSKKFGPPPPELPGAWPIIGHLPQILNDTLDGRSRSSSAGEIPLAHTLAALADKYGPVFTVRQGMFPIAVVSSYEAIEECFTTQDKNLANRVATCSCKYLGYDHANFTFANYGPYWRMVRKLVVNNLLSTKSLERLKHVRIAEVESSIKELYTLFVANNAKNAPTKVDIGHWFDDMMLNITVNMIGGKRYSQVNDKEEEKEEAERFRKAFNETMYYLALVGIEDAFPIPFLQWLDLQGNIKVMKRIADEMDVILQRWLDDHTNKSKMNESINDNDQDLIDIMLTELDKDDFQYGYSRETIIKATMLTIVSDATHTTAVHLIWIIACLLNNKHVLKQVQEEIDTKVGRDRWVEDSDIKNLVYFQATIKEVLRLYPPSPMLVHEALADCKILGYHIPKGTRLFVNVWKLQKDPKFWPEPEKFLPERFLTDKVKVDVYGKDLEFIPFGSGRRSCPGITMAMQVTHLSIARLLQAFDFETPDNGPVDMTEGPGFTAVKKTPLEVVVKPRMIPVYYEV

| Structure (SMILES) | transient expression in N. benthamiana leaves, UHPLC/HRMS of products [1] | transient expression in N. benthamiana leaves, UHPLC/HRMS of products ([2]; ring-hydroxylation next to the esterified carbon (isomer 2)) | transient expression in N. benthamiana leaves, UHPLC/HRMS of products ([2]; N-demethylation to tigloyl norpseudotropine, then ring-hydroxylation (isomer 2)) |
| --- | --- | --- | --- |
| C/C=C(\C)C(=O)O[C@@H]1C[C@H]2CC[C@@H](C1)N2 [compound 21, tigloyl norpseudotropine] | Assays with AbP450-116623 alone and N-demethylated tigloyl norpseudotropine as substrate yielded tigloyl hydroxynorpseudotropine | producing AbP450-5021 alone using either tigloyl pseudotropine or tigloyl norpseudotropine as substrate |  |
| C/C=C(\C)C(=O)OC1CC2CCC(C1)N2C (stereo not drawn) [compound 6, tigloyl pseudotropine] |  |  | producing AbP450-5021 alone using either tigloyl pseudotropine or tigloyl norpseudotropine as substrate |
